Measured values as given in patent US6599525B2, “Dressings and bandages comprising same” (Johnson & Johnson Consumer Companies, Inc., priority 1998, dated 2003).

Assays:
Assay in all cases: Microbiocidal activity of bandage samples on inoculated agar
Assay type in all cases: cell-based
Details in all cases: benzalkonium chloride in the dressing and bandage of the invention
[1] = tested on: Escherichia coli
Description: (§1) The purpose of this test was to determine whether the efficacy of the benzalkonium chloride contained within the absorbent substrate of a bandage of the invention would be adversely affected when a portion of the skin-facing surface of the absorbent substrate contained a discontinuous coating of an ointment-like composition. The specimens tested were the bandages of Example 4 comprising the dressing of Example 2. Test samples 2.5 cm×2 cm were cut from the bandages so as to remove the longitudinally extending adhesive strip portions that extended beyond the boundary of the dressing portion of the bandage.
(§2) The microbiocidal activity of the benzalkonium chloride in the dressing was tested by placing samples of the dressing on a peptone-casein-soya agar growth medium contained in petri dishes having an area of 64 square centimeters that had been inoculated with certain microorganisms. The test samples were placed in the dishes so that the skin facing side of the dressing contacted the agar medium. The following microorganisms were used:
(§3) The bactericidal suspensions for seeding of the prepared petri dishes were taken from cultures in their exponential growth phase. The concentration of each suspension was determined according to an AENOR (Association Francaise Normalisation) standard method using spectrophotometry at 620 nm. Suspensions of the desired concentration were then prepared by successive dilution to give seeding stock solutions.
(§4) A standard volume of the seeding stock solution was placed in the center of each prepared petri dish and spread with the help of a spreader. The inoculated plates were dried off in a drying oven at 37° C. for 30 minutes. The dressings were placed on top of the medium in the manner described above, and the petri dishes were then incubated for a total of 24 to 48 hours at 37° C. Dishes were removed from the incubator periodically and the extent of bacterial growth underneath the dressing was measured.

[2] = tested on: Mycobacterium smegmatis
Description: as §1, §2, §3, §4

[3] = tested on: Staphylococcus aureus
Description: as §1, §2, §3, §4

[4] = tested on: Streptococcus foecalis
Description: as §1, §2, §3, §4

Measured: bactericidal activity (summary in words)

benzalkonium chloride
significant bactericidal activity: all assays above
